Test results reported in publication PMC5724825, “Structure-activity studies of Mdm2/Mdm4-binding stapled peptides comprising non-natural amino acids” (PLoS ONE, 2017).
Each block holds one molecule with its values, some of them ahead of it. Bridge positions count the residues as written; N and C are the ends. Square brackets hold non-standard residues; d marks the D form. Trp(6-Cl) = N[C@@H](Cc1c[nH]c2cc(Cl)ccc12)C(=O)O; Trp(6-Me) = Cc1ccc2c(C[C@H](N)C(=O)O)c[nH]c2c1; S8 = C=CCCCCCC[C@](C)(N)C(=O)O; S5 = C=CCCC[C@](C)(N)C(=O)O; FAM = carboxyfluorescein

Tests used:
Mdm2 (amino acids 6–125) [1] = target: T1, Mdm2 (amino acids 6–125) (Homo sapiens, UniProt Q00987); assay: Competitive fluorescence anisotropy, Mdm2; assay type: binding; set-up: Mdm2 (amino acids 6–125) was cloned as a GST-fusion protein; GST (N, cleaved yes); made in house; host or cells: Escherichia coli BL21(DE3) pLysS; details: from Table 2
Mdm4 (amino acids 1–108) [2] = target: T2, Mdm4 (amino acids 1–108) (Homo sapiens, UniProt O15151); assay: Competitive fluorescence anisotropy, Mdm4; assay type: binding; details: from Table 2
T2 construct: Mdm4 and Mdm4-L98V (amino acids 1–108) were cloned with C-terminal 6xHIS tags; made in house; host or cells: Escherichia coli BL21(DE3)
T2 sequence (O15151 1-108): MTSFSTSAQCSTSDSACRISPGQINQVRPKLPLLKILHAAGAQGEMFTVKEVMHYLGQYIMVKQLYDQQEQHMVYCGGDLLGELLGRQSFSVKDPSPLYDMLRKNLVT
Experimental: (§1) Mdm4 and Mdm4-L98V (amino acids 1–108) were cloned with C-terminal 6xHIS tags. The constructs were then transformed into Escherichia coli BL21(DE3) (Invitrogen) competent cells. Cells were grown in LB medium at 37°C and induced at OD600 nm of 0.6 at 25°C with 0.25 mM IPTG and at 16°C with 1 mM IPTG for Mdm4-WT and Mdm4-L98V respectively. After overnight induction, the cells were harvested by centrifugation, resuspended in His-binding buffer (50 mM Bis-Tris pH 6.5, 1M NaCl, 20 mM imidazole, 0.5 mM DTT), and lysed by sonication. After centrifugation for 60 mins at 19,000 × g at 4°C, the cell lysate was then applied to a 1 mL HisTrap FF column (GE Healthcare) pre-equilibrated in His-binding buffer, washed and eluted off the column with His-elution buffer (50 mM Bis-Tris pH 6.5, 1M NaCl, 500 mM imidazole, 0.5 mM DTT) with a gradient elution of 35% elution buffer in 5 column volumes, followed by 35% to 100% elution buffer over 80 column volumes. Protein purity as assessed by SDS-PAGE was ~ 90%, and the fractions were pooled and buffer exchanged into 50 mM Bis-Tris pH 6.5, 350 mM NaCl, 1 mM DTT. The proteins were then concentrated using Amicon-Ultra (3 kDa MWCO) concentrator (Millipore).
(§2) Fluorescence anisotropy assays were performed as previously described. Titrations of purified Mdm2/Mdm4 proteins were incubated with 50 nM of carboxyfluorescein (FAM) labelled 12–1 peptide (FAM-[…]-NH2) to initially determine the dissociation constants for the peptide-protein interactions. Apparent Kds of peptides were next determined by competitive fluorescence anisotropy. Titrations of peptides were carried out at constant concentrations of Mdm2/Mdm2-M62A/Mdm4 (150 nM), Mdm4-L98V (250 nM) and labelled peptide (50 nM). Anisotropy measurements were carried out using the Envision Multilabel Reader (PerkinElmer). All experiments were carried out in PBS (2.7 mM KCl, 137 mM NaCl, 10 mM Na2HPO4 and 2 mM KH2PO4, pH 7.4), 4% DMSO and 0.1% Tween-20 buffer. All titrations were carried out in duplicate (3–6 repeats). Curve fitting was carried out using Prism (GraphPad).

[3] = system: p53 transactivation in T22 cells; assay: p53 reporter assay in T22 cells (β galactosidase); assay type: cell-based; details: 5, 10, 20 μM peptide, 18 hours, DMEM with 10% FBS
Experimental: Dulbecco’s Minimal Eagle Medium (DMEM) with 10% fetal bovine serum (FBS) and penicillin/streptomycin was used to maintain cells. T22 cells stably transfected with a p53 responsive β galactosidase reporter, were seeded into 96-well plates (8000 cells per well). 24 hours later, cells were treated with compounds/peptide for 18 hours in DMEM with 10% FBS. β galactosidase activity was measured using the FluoReporter LacZ/Galactosidase Quantitation kit (Invitrogen). Measurements were carried out on a Safire II multiplate reader (TECAN). All experiments were carried out in duplicate.
Fig 4 T22 reporter assay measuring p53 transactivation. A. Cells were treated with increasing concentrations (5, 10, 20 μM) of indicated peptide ligands and p53 activity determined by measuring β galactosidase levels. The small molecule Mdm2 inhibitor Nutlin (10 μM) was used as positive control. Activity is expressed as fold increase over cells treated with DMSO vehicle only. Values represent average ± SD (n = 2). * p < 0.001 compared to DMSO control. B. Lactate dehydrogenase release assay indicating no significant membrane disruption observed for increasing concentrations (2, 10, 20 μM) of indicated ligands compared to vehicle (DMSO) and positive maximum lysis control (MLC). Values represent average ± SD (n = 3).

[4] = target: T3, Mdm4-L98V (amino acids 1–108) (Homo sapiens, UniProt O15151, L98V); assay: Competitive fluorescence anisotropy, Mdm4-L98V; assay type: binding; details: from Table 2
T3 construct: Mdm4 and Mdm4-L98V (amino acids 1–108) were cloned with C-terminal 6xHIS tags; made in house; host or cells: Escherichia coli BL21(DE3)
T3 sequence (O15151 1-108 L98V): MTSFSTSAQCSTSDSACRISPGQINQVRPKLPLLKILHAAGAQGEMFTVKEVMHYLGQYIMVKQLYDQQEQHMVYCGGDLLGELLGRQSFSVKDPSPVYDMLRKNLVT
Experimental: as §1, §2

Mdm2 (amino acids 6–125) [5] = target: T1, Mdm2 (amino acids 6–125); set-up: Mdm2 (amino acids 6–125) was cloned as a GST-fusion protein; GST (N, cleaved yes); made in house; host or cells: Escherichia coli BL21(DE3) pLysS; details: earlier series; cited from earlier work
Source text: In common with all reported high-affinity binders, these peptides incorporate a signature p53-derived interacting motif comprising F, W and L residues that respectively dock into discrete hydrophobic pockets in the N-terminal domain of Mdm2 [13]. […] The ...

[6] = system: activation of the p53 tumour suppressor; details: earlier series; cited from earlier work
Source text: We have previously described a series of peptide antagonists targeting Mdm2, a key regulator of p53 function. In common with all reported high-affinity binders, these peptides incorporate a signature p53-derived interacting motif comprising F, W and L residues that respectively dock into discrete hydrophobic pockets in the N-terminal domain of Mdm2 [13]. This series exemplified significant enhancements in binding affinity, cellular uptake and activity arising from incorporation of a hydrocarbon tether and replacement of the tryptophan with the non-natural L-6-chlorotryptophan. The ...

[7] = target: T4, Mdm2-M62A (amino acids 6–125) (UniProt Q00987 6-125, M62A); assay: fluorescence polarisation; competitive fluorescence anisotropy, apparent Kd; peptides titrated at constant Mdm2/Mdm2-M62A/Mdm4 (150 nM) or Mdm4-L98V (250 nM) and FAM-labelled 12-1 peptide (50 nM); PBS pH 7.4, 4% DMSO, 0.1% Tween-20; details: both partners purified
T4 construct: Cloned in pGEX-6P-1; source: E. coli BL21(DE3) pLysS, purified (GSTrap, on-column PreScission cleavage, Resource S cation exchange)

[8] = target: T5, Mdm4-L98V (amino acids 1–108) (UniProt O15151 1-108, L98V); assay: as above; details: both partners purified
T5 construct: Mdm4 (also known as MdmX), amino acids 1-108, with L98V; also called L98V mutant; source: E. coli BL21(DE3), purified (HisTrap FF)
T5 sequence (looked up): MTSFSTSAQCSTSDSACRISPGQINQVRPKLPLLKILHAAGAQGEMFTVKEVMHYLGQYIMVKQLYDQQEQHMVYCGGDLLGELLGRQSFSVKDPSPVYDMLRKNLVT

Mdm2 (amino acids 6–125) [9] = target: T6, Mdm2 (amino acids 6–125) (UniProt Q00987 6-125); assay: as above; details: both partners purified
T6 construct: Cloned in pGEX-6P-1; also called Mdm2 N-terminal domain; source: E. coli BL21(DE3) pLysS, purified (GSTrap, on-column PreScission cleavage, Resource S cation exchange)

Mdm4 (amino acids 1–108) [10] = target: T7, Mdm4 (amino acids 1–108) (UniProt O15151 1-108); assay: as above; details: both partners purified
T7 construct: Mdm4 (also known as MdmX), amino acids 1-108; also called Mdm4-WT; MdmX; source: E. coli BL21(DE3), purified (HisTrap FF)
T7 sequence (looked up): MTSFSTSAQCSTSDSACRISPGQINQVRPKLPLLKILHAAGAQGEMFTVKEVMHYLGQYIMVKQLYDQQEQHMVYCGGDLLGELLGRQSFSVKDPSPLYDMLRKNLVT

[11] = target: T5, Mdm4-L98V (amino acids 1–108); assay: as above; details: both partners purified; remark: listed apart in the source
Mdm4 (amino acids 1–108) [12] = target: T7, Mdm4 (amino acids 1–108); assay: as above; details: both partners purified; remark: listed apart in the source

Reduced binding to Mdm2 of pre-stapled peptide compared to M011 (Mdm2 (amino acids 6–125) [1]): ~ 20 fold | Reduced binding to Mdm4 of pre-stapled peptide compared to M011 (Mdm4 (amino acids 1–108) [2]): ~ 4 fold
Molecule: C=CCCCCCC[C@@](C)(NC(=O)[C@H](Cc1ccccc1)NC(=O)[C@H](CO)NC(=O)[C@@H](NC(C)=O)[C@@H](C)O)C(=O)N[C@@H](CCC(=O)O)C(=O)N[C@@H](Cc1ccc(O)cc1)C(=O)N[C@@H](Cc1c[nH]c2cc(Cl)ccc12)C(=O)N[C@@H](C)C(=O)N[C@@H](CC(C)C)C(=O)N[C@@H](CC(C)C)C(=O)N[C@@](C)(CCCC=C)C(N)=O [M011-L]

Increase in binding affinity to Mdm4-L98V over binding to Mdm4 [4]: ~ 4.6 fold | Increased Mdm2 binding affinity over parental stapled peptide lacking the 6-chloro modification (PM2) (Mdm2 (amino acids 6–125) [1]): ~ 8 fold | Binding to Mdm2 over Mdm4 (affinity for Mdm4 reduced compared to Mdm2) (Mdm4 (amino acids 1–108) [2]): ~ 50 fold | Reduced binding to Mdm4 compared to PM2 (Mdm4 (amino acids 1–108) [2]): ~ 3 fold
Molecule: CC(=O)N[C@H](C(=O)N[C@@H](CO)C(=O)N[C@@H](Cc1ccccc1)C(=O)N[C@]1(C)CCCCCCC=CCCC[C@@](C)(C(N)=O)NC(=O)[C@H](CC(C)C)NC(=O)[C@H](CC(C)C)NC(=O)[C@H](C)NC(=O)[C@H](Cc2c[nH]c3cc(Cl)ccc23)NC(=O)[C@H](Cc2ccc(O)cc2)NC(=O)[C@H](CCC(=O)O)NC1=O)[C@@H](C)O [M011]
More active than M012 in T22 p53 reporter assay [3]: ~ 20% | Increase in Mdm2 binding affinity over the parental peptide (Mdm2 (amino acids 6–125) [5]): ~ 7 fold | Enhanced cellular activity over the parental peptide [6]: ~ 59 fold

Increase in binding affinity to Mdm4-L98V over binding to Mdm4 [4]: ~ 1.4 fold
Molecule: CC(=O)N[C@H](C(=O)N[C@@H](CO)C(=O)N[C@@H](Cc1ccccc1)C(=O)N[C@]1(C)CCCCCCC=CCCC[C@@](C)(C(N)=O)NC(=O)[C@H](CC(C)C)NC(=O)[C@H](CC(C)C)NC(=O)[C@H](C)NC(=O)[C@H](Cc2c[nH]c3ccccc23)NC(=O)[C@H](Cc2ccc(O)cc2)NC(=O)[C@H](CCC(=O)O)NC1=O)[C@@H](C)O [PM2]

Increase in binding affinity to Mdm4-L98V over binding to Mdm4 [4]: ~ 2.5 fold | Change in affinity for Mdm2 versus M011 (Mdm2 (amino acids 6–125) [1]): no change in affinity for Mdm2 | Improved binding to Mdm4 versus M011 (Mdm4 (amino acids 1–108) [2]): ~ 1.7 fold
Molecule: CC(=O)N[C@H](C(=O)N[C@@H](CO)C(=O)N[C@@H](Cc1ccccc1)C(=O)N[C@]1(C)CCCCCCC=CCCC[C@@](C)(C(=O)N[C@@H](CO)C(=O)N[C@@H](C)C(=O)N[C@@H](C)C(N)=O)NC(=O)[C@H](CC(C)C)NC(=O)[C@H](CC(C)C)NC(=O)[C@H](C)NC(=O)[C@H](Cc2c[nH]c3cc(Cl)ccc23)NC(=O)[C@H](Cc2ccc(O)cc2)NC(=O)[C@H](CCC(=O)O)NC1=O)[C@@H](C)O [VIP160]

binding result [7]: binds | binding result [8]: binds | binding result (Mdm2 (amino acids 6–125) [9]): binds | binding result (Mdm4 (amino acids 1–108) [10]): binds
B1: carboxyfluorescein (FAM) labelled 12–1 peptide (peptide)
peptide: {FAM}-RFMDYWEGL-NH2
notes: 12-1 peptide, tracer of the fluorescence anisotropy assays; also called labelled peptide; source: synthetic peptide

Kd [11]: 385 nM
Molecule: Ac-TSF[S5]EY[Trp(6-Me)]ALL[S8]-NH2 (staple 4-11; also: Trp(6-Me) D/L mixture, not separated) [M012 stapled peptide]

Kd [11]: 165 nM | Kd (Mdm4 (amino acids 1–108) [12]): 411 nM
Molecule: Ac-TSF[S5]EY[Trp(6-Me)]ALL[S8]-NH2 (bridges not given here; also: Trp(6-Me) not enantiomerically pure) [M012-L, linear precursor of M012]

Kd [11]: 72.3 nM | Kd (Mdm4 (amino acids 1–108) [12]): 335 nM
B2: M011 stapled peptide (peptide)
chain: TSFXEYWALLL
modifications: not fully specified; N-terminus acetylated; C-terminus amidated; L-6-chlorotryptophan at W23 (p53 numbering); (S)-2-(4′pentenyl) alanine at position 4 and (S)-2-(7′-octenyl) alanine at position 11, fused via olefin metathesis (i, i+7 hydrocarbon linkage)

Kd [11]: 594 nM | Kd (Mdm4 (amino acids 1–108) [12]): 1390 nM
Molecule: Ac-TSF[S5]EY[Trp(6-Cl)]ALL[S8]-NH2 (bridges not given here) [M011-L, linear precursor of M011]

Kd [11]: 72.3 nM | Kd (Mdm4 (amino acids 1–108) [12]): 101 nM
B3: PM2 stapled peptide (peptide)
chain: TSFXEYWALLL
modifications: not fully specified; N-terminus acetylated; C-terminus amidated; (S)-2-(4′pentenyl) alanine at position 4 and (S)-2-(7′-octenyl) alanine at position 11, fused via olefin metathesis (i, i+7 hydrocarbon linkage)
